As a reminder, the IC50 is the concentration at which inhibition is half-maximal.

These results are taken from patent US8309546B2, “Morpholinopurine derivatives” (Daiichi Sankyo Company, Limited, priority 2008, dated 2012).

The target of experiment [1] is PI3Kα (Homo sapiens, UniProt P42336). As to the kind of experiment: PI3K kinase activity inhibition assay. It is filed as biochemical. The following applies: Kinase-Glo Plus ATP detection, read-out: IC50 against PI3K. The gist of the method:
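PI3Kα (50 nM solution) was reacted with 30 μM ATP and 45 μM PIP2 solutions, each in HEPES pH 7.4 with MgCl2 and DTT, for 2 h at room temperature. Remaining ATP was measured by Kinase-Glo Plus luminescence, and inhibition was derived from ATP consumed. IC50 was taken from curve fitting of the serial dilutions.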
For orientation: Kinase-Glo measures the ATP left after a reaction by luminescence.

Experiment [2] deals with T1, human mTOR (His-tagged mTOR (1362C)) (Homo sapiens, UniProt P42345).
T1 construct: the 1362 to 2549 amino acid portion on the C terminus side of human mTOR; His tag (N); made in house
As to the kind of experiment: mTOR kinase activity inhibition assay. It is filed as biochemical. Particulars: HTRF, read-out: IC50 against mTOR. In short, it runs like this: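 Crude His-tagged mTOR (aa 1362–2549) from stable HEK293 cells, with 8 μg/ml biotinylated peptide in 50 mM HEPES pH 7.5, 20 mM MnCl2; compound diluted in 20 μM ATP solution, reaction 3 h at room temperature. Phospho-peptide detected by HTRF (anti-phospho-S6K Thr389 cryptate/streptavidin-XL665, overnight at 4°C), 665/620 nm ratio. IC50 derived from curve fit of % inhibition.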
On the technique in general: In TR-FRET formats the signal depends on donor and acceptor labels being close together.

The test system of experiment [3] is human endometrial cancer cell strain AN3CA. Kind of experiment: Cell growth inhibition test (MTT), AN3CA. It is filed as cell-based. Particulars: AN3-CA, 72 h, 3 days culture, read-out: concentration exhibiting anti-cell effect (GI50). The gist of the method: (§1)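 Cells were seeded per well (AN3CA 5000, IGROV1 1000, HT29 5000), dosed next day and cultured 3 days at 37° C in 5% CO2. Viable cells were read by MTT (4 h, DMSO-solubilized formazan, A540). GI50 was interpolated between the two concentrations bracketing 50% growth rate (T/C %, corrected for day-0 absorbance).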

For experiment [4], the system named is human ovary cancer cell strain IGROV1. As to the kind of experiment: Cell growth inhibition test (MTT), IGROV1. Particulars: IGROV-1, 72 h, IGROV1, 3 days culture, read-out: concentration exhibiting anti-cell effect (GI50). It is filed as cell-based. In short, it runs like this: as §1
Experiment [5] concerns human colon cancer cell strain HT29. Kind of experiment: Cell growth inhibition test (MTT), HT29. Particulars: HT-29, 72 h, HT29, 3 days culture, read-out: concentration exhibiting anti-cell effect (GI50). It is filed as cell-based. The gist of the method:
as §1

Where only a bound is given, the exact number is not on record here.

T1 sequence (P42345 1362-2549): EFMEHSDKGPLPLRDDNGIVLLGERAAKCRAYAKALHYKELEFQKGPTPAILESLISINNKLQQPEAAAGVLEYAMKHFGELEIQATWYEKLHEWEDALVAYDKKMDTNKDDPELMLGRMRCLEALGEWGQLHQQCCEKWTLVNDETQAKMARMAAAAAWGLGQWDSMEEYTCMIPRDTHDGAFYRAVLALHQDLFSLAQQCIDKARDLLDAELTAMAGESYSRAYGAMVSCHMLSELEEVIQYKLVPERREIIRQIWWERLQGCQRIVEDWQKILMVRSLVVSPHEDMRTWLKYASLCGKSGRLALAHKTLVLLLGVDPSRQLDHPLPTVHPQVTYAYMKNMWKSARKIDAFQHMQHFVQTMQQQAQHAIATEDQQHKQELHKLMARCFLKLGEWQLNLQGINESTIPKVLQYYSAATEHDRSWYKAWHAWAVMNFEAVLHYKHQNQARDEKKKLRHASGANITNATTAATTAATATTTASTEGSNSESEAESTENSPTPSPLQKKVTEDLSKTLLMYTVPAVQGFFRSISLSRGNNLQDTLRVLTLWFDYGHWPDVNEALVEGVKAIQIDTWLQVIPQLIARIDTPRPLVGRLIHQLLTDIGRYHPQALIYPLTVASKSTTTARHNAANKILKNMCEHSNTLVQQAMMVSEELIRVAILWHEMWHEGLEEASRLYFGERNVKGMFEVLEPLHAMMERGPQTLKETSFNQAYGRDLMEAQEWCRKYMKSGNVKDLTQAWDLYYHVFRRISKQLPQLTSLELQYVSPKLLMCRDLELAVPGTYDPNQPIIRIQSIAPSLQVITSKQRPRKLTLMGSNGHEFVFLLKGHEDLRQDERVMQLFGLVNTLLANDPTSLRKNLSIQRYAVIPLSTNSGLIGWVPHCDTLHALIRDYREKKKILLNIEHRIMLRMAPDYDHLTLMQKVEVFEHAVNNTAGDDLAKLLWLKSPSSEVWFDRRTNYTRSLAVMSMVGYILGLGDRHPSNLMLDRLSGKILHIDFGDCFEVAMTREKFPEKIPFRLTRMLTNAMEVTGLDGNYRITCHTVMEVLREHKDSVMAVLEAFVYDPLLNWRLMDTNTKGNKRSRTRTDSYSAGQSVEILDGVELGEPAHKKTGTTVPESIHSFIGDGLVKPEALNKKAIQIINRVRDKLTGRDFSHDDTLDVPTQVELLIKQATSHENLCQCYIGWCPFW
PI3Kα, sequence (P42336 whole entry, species assumed): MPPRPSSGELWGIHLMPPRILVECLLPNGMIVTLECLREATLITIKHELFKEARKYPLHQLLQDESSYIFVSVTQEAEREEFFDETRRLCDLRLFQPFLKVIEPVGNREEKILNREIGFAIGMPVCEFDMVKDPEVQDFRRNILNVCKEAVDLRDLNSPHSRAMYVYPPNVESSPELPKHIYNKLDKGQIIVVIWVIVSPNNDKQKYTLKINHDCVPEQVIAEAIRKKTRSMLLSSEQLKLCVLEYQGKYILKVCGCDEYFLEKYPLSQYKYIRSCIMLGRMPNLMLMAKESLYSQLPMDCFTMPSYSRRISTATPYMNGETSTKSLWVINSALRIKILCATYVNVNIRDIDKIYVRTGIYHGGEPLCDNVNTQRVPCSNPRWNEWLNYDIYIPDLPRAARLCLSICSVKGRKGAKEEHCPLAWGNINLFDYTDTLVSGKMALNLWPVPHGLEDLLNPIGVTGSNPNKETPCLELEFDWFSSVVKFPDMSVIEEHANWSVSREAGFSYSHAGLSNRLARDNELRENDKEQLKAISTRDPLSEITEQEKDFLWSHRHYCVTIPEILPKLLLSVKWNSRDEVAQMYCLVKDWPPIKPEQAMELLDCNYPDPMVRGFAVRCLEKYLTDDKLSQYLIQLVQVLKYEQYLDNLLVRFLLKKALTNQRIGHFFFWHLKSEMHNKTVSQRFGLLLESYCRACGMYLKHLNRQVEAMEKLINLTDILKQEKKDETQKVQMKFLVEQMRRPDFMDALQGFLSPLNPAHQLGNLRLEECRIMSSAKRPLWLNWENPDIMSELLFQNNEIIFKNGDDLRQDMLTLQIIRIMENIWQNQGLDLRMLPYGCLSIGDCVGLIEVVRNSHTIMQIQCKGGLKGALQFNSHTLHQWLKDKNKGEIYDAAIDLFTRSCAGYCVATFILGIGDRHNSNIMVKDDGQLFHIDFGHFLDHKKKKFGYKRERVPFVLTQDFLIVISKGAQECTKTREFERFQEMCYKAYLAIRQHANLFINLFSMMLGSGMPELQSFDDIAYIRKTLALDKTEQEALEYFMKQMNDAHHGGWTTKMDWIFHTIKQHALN
PI3Kα, sequence (P27986 whole entry partner, species assumed): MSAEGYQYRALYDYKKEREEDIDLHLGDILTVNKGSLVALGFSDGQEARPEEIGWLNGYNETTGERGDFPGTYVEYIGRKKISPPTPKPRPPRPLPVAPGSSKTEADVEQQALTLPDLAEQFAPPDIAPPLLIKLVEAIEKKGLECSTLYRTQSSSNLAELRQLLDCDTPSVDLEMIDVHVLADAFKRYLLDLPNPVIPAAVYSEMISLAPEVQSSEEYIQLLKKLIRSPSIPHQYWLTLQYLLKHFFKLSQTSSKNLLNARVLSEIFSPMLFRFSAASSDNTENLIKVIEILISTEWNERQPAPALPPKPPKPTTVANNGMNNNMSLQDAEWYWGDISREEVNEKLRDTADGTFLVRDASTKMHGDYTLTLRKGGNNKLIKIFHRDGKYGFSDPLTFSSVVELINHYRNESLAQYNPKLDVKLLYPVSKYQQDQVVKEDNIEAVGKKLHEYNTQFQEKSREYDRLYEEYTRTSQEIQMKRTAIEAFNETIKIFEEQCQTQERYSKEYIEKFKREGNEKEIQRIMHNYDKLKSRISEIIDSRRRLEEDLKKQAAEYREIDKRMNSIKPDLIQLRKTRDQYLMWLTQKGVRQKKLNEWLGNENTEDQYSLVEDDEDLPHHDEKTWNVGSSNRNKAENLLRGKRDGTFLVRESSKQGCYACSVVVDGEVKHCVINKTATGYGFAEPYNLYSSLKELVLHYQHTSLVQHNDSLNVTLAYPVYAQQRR

Regarding `Nc1ncc(-c2nc(N3CCOCC3)c3nc(N4CCC(S(=O)(=O)c5ccccc5)C4)n(CC4CC4)c3n2)cn1` (stereo not drawn) [Example 31, 5-{9-(Cyclopropylmethyl)-6-morpholin-4-yl-8-[3-(phenylsulfonyl)pyrrolidin-1-yl]-9H-purin-2-yl}pyrimidin-2-amine], the IC50 in experiment [1] was under 10 nM; in experiment [2], 30 to 100 nM. Also, the GI50 in experiment [3], in experiment [4] and in experiment [5] was at most 5 µM each time.

`Cc1nc(N)ncc1-c1nc(N2CCOCC2)c2nc(NCCNS(C)(=O)=O)n(CC3CC3)c2n1` [Example 32, N-(2-{[2-(2-Amino-4-methylpyrimidin-5-yl)-9-(cyclopropylmethyl)-6-morpholin-4-yl-9H-purin-8-yl]amino}ethyl)methanesulfonamide]: the IC50 in experiment [1] is 20 to 50 nM; in experiment [2], at least 500 nM. The GI50 in experiment [3], in experiment [4] and in experiment [5] was at most 5 µM throughout.

`C[C@@H]1CN(c2nc3c(N4CCOCC4)nc(-c4cnc(N)nc4)nc3n2[C@H]2CCN(S(C)(=O)=O)C2)C[C@H](C)N1` [Example 26, 5-{8-(cis-3,5-Dimethylpiperazin-1-yl)-9-[(3S)-1-(methylsulfonyl)pyrrolidin-3-yl]-6-morpholin-4-yl-9H-purin-2-yl}pyrimidin-2-amine]: the IC50 was 20 to 50 nM in experiment [1] and 100 to 500 nM in experiment [2]. The GI50 in experiment [3], in experiment [4] and in experiment [5] was at most 5 µM each time.

In the case of `Cc1nc(N)ncc1-c1nc(N2CCOCC2)c2nc(N3CC[C@@H](NS(C)(=O)=O)C3)n(CC3CC3)c2n1` [Example 72, N-{(3R)-1-[2-(2-Amino-4-methylpyrimidin-5-yl)-9-(cyclopropylmethyl)-6-morpholin-4-yl-9H-purin-8-yl]pyrrolidin-3-yl}methanesulfonamide], the IC50 in experiment [1] is under 10 nM; in experiment [2] it was at least 500 nM. Moreover, the GI50 in experiment [3], in experiment [4] and in experiment [5] was at most 5 µM throughout.

For `Cc1nc(N)ncc1-c1nc(N2CCOCC2)c2nc(NCCN3CCOCC3)n(CC3CC3)c2n1` [Example 22, 2-(2-Amino-4-methylpyrimidin-5-yl)-9-(cyclopropylmethyl)-6-morpholin-4-yl-N-(2-morpholin-4-ylethyl)-9H-purin-8-amine], the IC50 was 10 to 20 nM in experiment [1] and at least 500 nM in experiment [2]. Moreover, the GI50 in experiment [3], in experiment [4] and in experiment [5] was at most 5 µM in each case.

For the compound `Cc1nc(N)ncc1-c1nc(N2CCOCC2)c2nc(N3CCC(C(N)=O)CC3)n(CC3CC3)c2n1` [Example 36, 1-[2-(2-Amino-4-methylpyrimidin-5-yl)-9-(cyclopropylmethyl)-6-morpholin-4-yl-9H-purin-8-yl]piperidine-4-carboxamide], the IC50 in experiment [1] is under 10 nM; in experiment [2], 100 to 500 nM. In addition, the GI50 in experiment [3], in experiment [4] and in experiment [5] was at most 5 µM in each case.

With `Cc1nc(N)ncc1-c1nc(N2CCOCC2)c2nc(N3CCC(N(C)C)C3)n(CC3CC3)c2n1` (stereo not drawn) [Example 33, 5-{9-(Cyclopropylmethyl)-8-[3-(dimethylamino)pyrrolidin-1-yl]-6-morpholin-4-yl-9H-purin-2-yl}-4-methylpyrimidin-2-amine], the IC50 is 20 to 50 nM in experiment [1] and at least 500 nM in experiment [2]. Further, the GI50 in experiment [3], in experiment [4] and in experiment [5] was at most 5 µM throughout.

Take `CC(C)Cn1c(N2CCN(C(=O)N(C)C)CC2)nc2c(N3CCOCC3)nc(-c3cnc(N)nc3)nc21` [Example 45, 4-[2-(2-Aminopyrimidin-5-yl)-9-isobutyl-6-morpholin-4-yl-9H-purin-8-yl]-N,N-dimethylpiperazine-1-carboxamide]: the results for the half-inhibitory concentration (IC50) in experiment [1] and in experiment [2] were 20 to 50 nM and 30 to 100 nM, respectively. The GI50 in experiment [3], in experiment [4] and in experiment [5] was at most 5 µM throughout.

Take `Cc1nc(N)ncc1-c1nc(N2CCOCC2)c2nc(N3C[C@@H](C)N[C@@H](C)C3)n(CC3CC3)c2n1` [Example 15, 5-[9-(Cyclopropylmethyl)-8-(cis-3,5-dimethylpiperazin-1-yl)-6-morpholin-4-yl-9H-purin-2-yl]-4-methylpyrimidin-2-amine]: the IC50 in experiment [1] lay in the range of 20 to 50 nM; in experiment [2], 100 to 500 nM. Besides, the GI50 in experiment [3], in experiment [4] and in experiment [5] was at most 5 µM in each case.

As to `NCC(=O)N1CCN(c2nc3c(N4CCOCC4)nc(-c4cnc(N)nc4)nc3n2CC2CC2)CC1` [Example 42, 5-{8-[4-(Aminoacetyl)piperazin-1-yl]-9-(cyclopropylmethyl)-6-morpholin-4-yl-9H-purin-2-yl}pyrimidin-2-amine], the IC50 in experiment [1] is under 10 nM; in experiment [2], 30 to 100 nM. The GI50 in experiment [3], in experiment [4] and in experiment [5] was at most 5 µM throughout.

For the compound `Nc1ncc(-c2nc(N3CCOCC3)c3nc(N4CCOCC4)n(CC4CC4)c3n2)cn1` [Example 20, 5-[9-(Cyclopropylmethyl)-6,8-dimorpholin-4-yl-9H-purin-2-yl]pyrimidin-2-amine], the figures for the IC50 in experiment [1] and in experiment [2] were 10 to 20 nM and 30 to 100 nM, respectively. Further, the GI50 in experiment [3], in experiment [4] and in experiment [5] was at most 5 µM throughout.

With `CN(C)CCNc1nc2c(N3CCOCC3)nc(-c3cnc(N)nc3)nc2n1CC1CC1` [Example 28, N′-[2-(2-Aminopyrimidin-5-yl)-9-(cyclopropylmethyl)-6-morpholin-4-yl-9H-purin-8-yl]-N,N-dimethylethane-1,2-diamine], the IC50 in experiment [1] fell in the range of 10 to 20 nM; in experiment [2], 100 to 500 nM. Also, the GI50 in experiment [3], in experiment [4] and in experiment [5] was at most 5 µM in each case.

Turning to `Cc1nc(N)ncc1-c1nc(N2CCOCC2)c2nc(N3CCC(NS(C)(=O)=O)C3)n(CC3CC3)c2n1` (stereo not drawn) [Example 35, N-{1-[2-(2-Amino-4-methylpyrimidin-5-yl)-9-(cyclopropylmethyl)-6-morpholin-4-yl-9H-purin-8-yl]pyrrolidin-3-yl}methanesulfonamide], the IC50 in experiment [1] is 10 to 20 nM; in experiment [2], at least 500 nM. The GI50 in experiment [3], in experiment [4] and in experiment [5] was at most 5 µM in each case.

Take `C[C@H]1CN(c2nc3c(N4CCOCC4)nc(-c4cnc(N)nc4)nc3n2CC(F)(F)F)CCN1` [Example 58, 5-{8-[(3S)-3-Methylpiperazin-1-yl]-6-morpholin-4-yl-9-(2,2,2-trifluoroethyl)-9H-purin-2-yl}pyrimidin-2-amine]: the IC50 in experiment [1] was under 10 nM; in experiment [2], 10 to 30 nM. Besides, the GI50 in experiment [3], in experiment [4] and in experiment [5] was at most 5 µM each time.

Take `CC(C)n1c(N2CCN(S(C)(=O)=O)CC2)nc2c(N3CCOCC3)nc(-c3cnc(N)nc3)nc21` [Example 46, 5-{9-Isopropyl-8-[4-(methylsulfonyl)piperazin-1-yl]-6-morpholin-4-yl-9H-purin-2-yl}pyrimidin-2-amine]: the figures for the IC50 in experiment [1] and in experiment [2] were 20 to 50 nM and 30 to 100 nM, respectively. The GI50 in experiment [3], in experiment [4] and in experiment [5] was at most 5 µM each time.
